One experiment deals with KINGS1. Put plainly: Stemness marker expression (qPCR, western blot). It is filed as cell-based. The note with it: KINGS1, 5 μM, 96 h. An excerpt: Super-enhancers consist of enhancer clusters with abundant binding of transcription factors and are highly enriched with H3K27ac marks. The H3K4me2 increased regions included the MYC locus and H3K4me2 de novo regions comprised Nestin and SOX2 loci (Fig. 2F, Supplementary Fig. S5A). These regions were also identified as super-enhancers in GSCs using data from our previous study (Fig. 2F). Compared to the large increase in H3K4me2 in these regions, changes in H3K4me3 were subtle after S2172 treatment (only 2582 regions were acquired modification) (Fig. 2C). Increasing the me2/me3 ratio at H3K4 is associated with reduced gene expression. […]
instructions. For GSC cells, the CellTiter-Glo 3D Viability Assay (Promega, Madison, WI, USA) was used to measure the living cells. All proliferation experiments were repeated […]
Total RNA from the cell lines was extracted using TRIzol (Thermo Fisher Scientific), followed by reverse-transcription using Prime Script RT Master Mix (Takara, Kusatsu, Japan). […]
B. Western blot analysis of LSD1,MYC, Nestin, SOX2,and ACTB in same cells as shown in panel A. ACTB was used as a loading control. […] Quantification of signal intensities of the Western blot (right panel). […] Right panel: Quantification of band signal intensities from the Western blot. […] The ratio was calculated by dividing the cleaved PARP band intensity by the full-length PARP band intensity. […]

Another experiment has as its system glioma stem cells (GSCs). Put plainly: Cell growth / viability in glioma stem cells. It is filed as cell-based. The text has this: Inhibition of LSD1 can effectively suppress stem-like tumor-propagating cells in human glioma.
Supplementary materials and methods
RNA-seq data of malignant glioma (n=157) and normal tissue (n=5) were obtained from TCGA (http://xena.ucsc.edu/).
Cell lines and culture conditions
Glioblastoma cell line, LN229, was obtained from the American Type Culture Collection (ATCC, Manassas, VA, USA). Normal fibroblast cell lines TIG3 and WI-38, TM31 (low grade glioma) were obtained from the RIKEN Bioresource Research Center (Tsukuba, Japan). Onda10 and KINGS1 (low grade glioma) cell lines were obtained from the Japanese Collection of Research Bioresources (Ibaraki, Japan). F3 is utilized as a neural stem cell line{Kim, 2004 #1412}{Natsume, 2013 #1009}. All cells were maintained in DMEM medium (Wako, Osaka, Japan) containing 5% fetal bovine serum (FBS, Thermo Fisher Scientific, Waltham, MA, USA) and 1% penicillin-streptomycin (Wako). Glioma stem cell lines (GSC1228, GSC316, and GSC222) were established previously{Natsume, 2013 #1009}{Katsushima, 2016 #1156}. […]
For the cell proliferation assay, cells at a density of 1 × 10^5 cells per well were seeded before treatment with LSD1 inhibitors. Cell proliferation was measured after 4 days using a Cell Counting Kit 8 (Dojindo, Kumamoto, Japan) according to the manufacturer ’s […]

pIC50: −log10 of the molar value.

Consider `NC1CCC(NC2CC2c2cc(F)cc(F)c2OCc2ccccc2)CC1` (stereo not drawn) [S2172], for which, in the experiment with KINGS1, the “stemness marker expression at mRNA and protein levels” value is “did not show significant changes”. For the same compound, the viability at 5 µM in the experiment on glioma stem cells (GSCs) (GSC cells, 5 μM, read-out: viable cells) was less than 80%. For the same compound, in the experiment on glioma stem cells (GSCs) (mean over glioma stem cells, read-out: mean half-maximal inhibitory concentration (IC50), cell growth in GSCs), the pIC50 is 4.86.

(Values after publication PMC11645267, “Novel pharmacologic inhibition of lysine-specific demethylase 1 as a potential therapeutic for glioblastoma” (Cancer Gene Therapy, 2024).)
